Data: patent US5462926A (Biomeasure, Inc., priority 1993, dated 1995)
Read-outs that look alike come from different tables or passages of the source. Where a SMILES comes first, the peptide text is derived from it. Bridges are numbered along the chain shown (N, C = ends). [ ]: non-standard residue; d: D form. 2Nal = N[C@@H](Cc1ccc2ccccc2c1)C(=O)O; d2Nal = N[C@H](Cc1ccc2ccccc2c1)C(=O)O

Legend:
GRP receptor [1] = target: T1, GRP receptor (Rattus norvegicus, UniProt P52500); experiment: Amylase release from rat pancreatic acini (alone or Bn-stimulated); type: cell-based; design: from tissue; host or cells: dispersed pancreatic acini; details: for Amylase Release, analog Alone (10 μM): analog 10 μM alone, control 4 ± 1; for Amylase Release, analog Plus Bn (0.3 nM): analog 10 μM plus Bn 0.3 nM, Bn without analog 15 ± 1; for IC50: read-out: IC50 Amylase Release, GRP Receptor, Rat Pancreatic Acini
Experimental: pancreatic acini or [^3 H]myo[2H]inositolloaded NMBR transfected cell
were incubated either with no additives, the somatostatin octapeptide
analog, Bn, or NMB, or a combination for 30 min at 37° C.. Amylase
release from pancreatic acini was expressed at the indicated percent of
the total cellular amylase released during the incubation. [^3 H]IP i
expressed in dpm's. To test for inhibitory effects, the effect of
somatostatin analog (10 μM) was determined on 0.3 nM Bnstimulated

[2] = target: T2, GRP receptors on rat pancreatic acini (Rattus norvegicus, UniProt P52500); experiment: Binding of 125I-[Tyr4]bombesin to pancreatic acini; details: read-out: Ki 125I-[Tyr4]Bn Binding, GRP Receptor, Rat Pancreatic Acini; Ki by Cheng method
T2 construct: from tissue; host or cells: dispersed pancreatic acini
Excerpt: Nonsaturable binding was<10% of total binding in all experiments.

NMB receptor [3] = target: T3, NMB receptor (Rattus norvegicus, UniProt P24053); experiment: NMB membrane receptor assay, 125I-NMB, rat olfactory bulb membranes; type: binding; design: Membranes were prepared from rat olfactory bulb (NMB membrane receptor assay); from tissue; host or cells: rat olfactory bulb membranes; details: for Ki: Cheng method, unit inferred, read-out: affinity, 125I-NMB, Rat Olfactory bulb membranes (neuromedin B receptors)
T3 sequence (P24053 1-390): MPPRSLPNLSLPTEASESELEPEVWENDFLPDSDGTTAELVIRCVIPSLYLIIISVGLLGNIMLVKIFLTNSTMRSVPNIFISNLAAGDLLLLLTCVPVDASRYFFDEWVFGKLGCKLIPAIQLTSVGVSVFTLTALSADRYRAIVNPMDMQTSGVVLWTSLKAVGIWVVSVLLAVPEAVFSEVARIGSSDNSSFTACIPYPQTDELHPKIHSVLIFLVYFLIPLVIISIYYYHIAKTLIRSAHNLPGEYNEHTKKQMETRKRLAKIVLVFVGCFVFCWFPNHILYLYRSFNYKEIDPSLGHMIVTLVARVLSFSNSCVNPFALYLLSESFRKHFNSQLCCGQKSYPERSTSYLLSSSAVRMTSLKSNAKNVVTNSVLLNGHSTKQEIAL

mu opioid receptors = target: T4, mu opioid receptors (Rattus norvegicus, UniProt P33535); experiment: Mu opioid membrane assay, [3H]DAGO, rat forebrain membranes; type: binding; details: Cheng method; unit inferred; read-out: affinity, [3H]DAGO, Rat Forebrain membranes (mu opioid receptors)
T4 construct: rat forebrain (TRH, mu and delta opioid membrane assays); from tissue; host or cells: rat forebrain membranes

rat NMB receptor = target: T5, rat NMB receptor (Rattus norvegicus, UniProt P24053); experiment: Binding of 125I-[D-Tyr0]NMB to NMB-R transfected BALB 3T3 cells; details: for fold decrease in NMB receptor affinity compared with cyclo SS-octa (#1): structure-function comparison from Table 1
T5 construct: a full length NMB-preferring bombesin receptor clone generated from rat esophagus; expressed in transfected cells
T5 sequence (P24053 1-390): T3 sequence (P24053 1-390)
Experimental: (§1) Cells were passaged every 3-4 days at confluence, using 0.1% trypsin in 1 mM EDTA. Rat glioblastoma C-6 tumor cells were maintained similarly and were passaged weekly at confluence. Both cell lines were cultured at 37° C. in a 5% CO2 atmosphere. Rat AR 42J pancreatic acinar cells were cultured in Dulbecco's modified Eagle's medium (DMEM) without antibiotics and supplemented with 10% (vol/vol) fetal calf serum. The incubation atmosphere consisted of 10% CO2 -90% humidified air at 37° C.

GRP receptor [4] = target: T1, GRP receptor; experiment: GRP membrane receptor assay, 125I-[Tyr4]Bn, AR 42J cell membranes; type: binding; design: endogenous in cells; host or cells: rat AR 42J pancreatic acinar tumor cell membranes; details: read-out: affinity, 125I-[Tyr4]Bn, AR 42J Cell Membranes (GRP receptors); Cheng method; unit inferred
NMB receptor [5] = target: T3, NMB receptor; experiment: [3H]inositol phosphates in NMB-R transfected cells (alone or NMB-stimulated); type: cell-based; design: a full length NMB-preferring bombesin receptor clone generated from rat esophagus; expressed in transfected cells; details: NMB-R transfected cells; for [3H]IP, analog Alone (10 μM): analog 10 μM alone, control 13 ± 3; for [3H]IP, analog Plus NMB (3 nM): analog 10 μM plus NMB 3 nM, NMB without analog 186 ± 58
Experimental: as §1, with “As described previously [Wada, E., et al. Neuron 6:421 (1991)], BALB 3T3 cells expressing a stably transfected rat NMB receptor (NMB-R transfected cells) were obtained using calcium phosphate precipitation of a full length NMB-preferring bombesin receptor clone generated from rat esophagus and subcloned into a modified version of the pCD2 plasmid. Cells” for “Cells”
Measurement of phosphoinositides
Total phosphoinositides in C-6 cells and in NMB-R transfected cells were determined as described previously, with minor modifications [Benya, R. V. et al. Mol. Pharmacol. 42:1058 (1992); and Wang, L-H. et al. Biochem. Jo 286:641 (1992)]. Cells were grown to confluence in 24-well plates and then loaded with 100 μCi/ml myo-[2-^3 H]inositol in Dulbecco's modified essential medium with 2% fetal bovine serum at 37° C. for 48 hrs. Cells were washed and incubated in phosphoinositide buffer (standard buffer additionally containing 10 mM LiCl, 20 mM HEPES, 2 mM CaCl2, 2% BSA, and 1.2 mM MgSO4) for 15 min and then for 60 min at 37° C. with agonists at various concentrations or with 3 nM NMB (a half-maximal effective concentration) and possible antagonists at different concentrations. Reactions were halted using ice-cold 1% HCl in methanol, and the inositol phosphates (IP) were isolated as described previously [Bologna, M. et al. Cancer 63:1714 (1989); and Endo, T. et al. J. Endocrinolo 131:313 (1991)]. Briefly, after loading of the anion exchange column, free [^3 H]glycerophosphorylinositol was removed by washing with 5 mM disodium tetraborate in 60 mM sodium formate. Total [^3 H]inositol phosphates were then eluted using 100 mM formic acid in 1.0M ammonium formate as described previously [Benya, R. V. et al. Mol. Pharmacol. 42:1058 (1992); and Wang, L-H. et al. Biochem. J. 286:641 (1992 )].

somatostatin receptors = target: T6, somatostatin receptors (Rattus norvegicus, UniProt P30680); experiment: Somatostatin membrane receptor assay, 125I-[Tyr11]SS-14, AR 42J cell membranes; type: binding; details: Cheng method; table prints no unit (b360 gives nM for a Table 4 value); read-out: affinity, 125I-[Tyr11]SS-14, AR 42J Cell Membranes (somatostatin receptors)
T6 construct: endogenous in cells; host or cells: rat AR 42J pancreatic acinar tumor cell membranes

[6] = NMB-R transfected BALB 3T3 cells, Ki by Cheng method, read-out: Ki 125I-NMB Binding, NMB Receptor, Transfected Cells
[7] = 3 nM NMB, read-out: IC50 NMB-stimulated [3H]IP, NMB Receptor, Transfected Cells

T1 sequence (P52500 whole entry): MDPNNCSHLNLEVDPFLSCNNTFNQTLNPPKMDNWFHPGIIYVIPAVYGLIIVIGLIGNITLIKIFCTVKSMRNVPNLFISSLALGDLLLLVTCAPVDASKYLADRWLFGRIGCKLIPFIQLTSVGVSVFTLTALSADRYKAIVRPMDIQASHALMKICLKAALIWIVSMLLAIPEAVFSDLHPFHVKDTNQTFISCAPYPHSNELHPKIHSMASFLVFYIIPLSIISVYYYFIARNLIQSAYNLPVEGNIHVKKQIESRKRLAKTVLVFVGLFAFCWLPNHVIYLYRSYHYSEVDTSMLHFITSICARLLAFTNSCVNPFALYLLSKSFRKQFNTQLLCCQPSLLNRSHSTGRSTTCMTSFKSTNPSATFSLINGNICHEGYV
T2 sequence (P52500 whole entry): as above
T4 sequence (P33535 whole entry): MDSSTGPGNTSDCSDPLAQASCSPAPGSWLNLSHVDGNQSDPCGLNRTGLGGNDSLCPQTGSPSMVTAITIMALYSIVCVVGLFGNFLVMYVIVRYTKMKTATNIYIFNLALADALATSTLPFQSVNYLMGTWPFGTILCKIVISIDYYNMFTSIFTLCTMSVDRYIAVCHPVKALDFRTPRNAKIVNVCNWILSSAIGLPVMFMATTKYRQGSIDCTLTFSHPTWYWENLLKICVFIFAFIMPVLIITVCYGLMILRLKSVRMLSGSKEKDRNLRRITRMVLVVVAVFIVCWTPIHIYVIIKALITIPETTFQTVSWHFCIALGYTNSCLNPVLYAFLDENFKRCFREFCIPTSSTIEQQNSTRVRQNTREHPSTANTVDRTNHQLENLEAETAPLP
T6 sequence (P30680 whole entry): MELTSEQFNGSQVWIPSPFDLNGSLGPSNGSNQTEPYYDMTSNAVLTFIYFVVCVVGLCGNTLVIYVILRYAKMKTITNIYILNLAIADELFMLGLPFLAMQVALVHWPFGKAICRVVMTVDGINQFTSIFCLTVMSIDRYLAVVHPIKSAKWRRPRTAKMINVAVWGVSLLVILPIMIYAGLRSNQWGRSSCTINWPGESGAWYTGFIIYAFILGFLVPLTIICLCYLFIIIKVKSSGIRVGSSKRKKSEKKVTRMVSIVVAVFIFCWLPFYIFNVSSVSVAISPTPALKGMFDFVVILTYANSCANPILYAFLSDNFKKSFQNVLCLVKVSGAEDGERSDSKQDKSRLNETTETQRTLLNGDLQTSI

SMILES | Amylase Release, analog Alone (10 μM) (GRP receptor [1]) | Amylase Release, analog Plus Bn (0.3 nM) (GRP receptor [1]) | IC50 (GRP receptor [1]) | Ki [2] | Ki (NMB receptor [3]) | Ki (mu opioid receptors) | Ki (rat NMB receptor; [6]) | fold by which cyclo SS-octa is more potent than the analog, 125I-NMB binding (rat NMB receptor; NMB-R transfected cells) | Ki (GRP receptor [4]) | IC50 (NMB receptor [5]; [7]) | IC50 (NMB receptor [5]; 3 nM NMB, read-out: IC50 NMB-stimulated [3H]IP, Transfected Cells (values in μM)) | effect at 10 μM on NMB-stimulated increase in [3H]IP (NMB receptor [5]; 10 μM, 3 nM NMB) | [3H]IP, analog Alone (10 μM) (NMB receptor [5]) | [3H]IP, analog Plus NMB (3 nM) (NMB receptor [5]) | Ki (somatostatin receptors) | Ki (rat NMB receptor; NMB-R transfected cells, value or range given for a group, read-out: K1, 125I-NMB binding to NMB-R transfected cells (text)) | fold decrease in NMB receptor affinity compared with cyclo SS-octa (#1) (rat NMB receptor) | fold higher affinity for NMB receptors than somatostatin receptors (NMB receptor [3]; membranes, Table 4)
CC(C)[C@@H]1NC(=O)[C@H](CCCCN)NC(=O)[C@@H](Cc2ccc3ccccc3c2)NC(=O)[C@H](Cc2ccc(O)cc2)NC(=O)[C@@H](NC(=O)[C@H](N)Cc2ccc3ccccc3c2)CSSC[C@@H](C(=O)N[C@@H](Cc2ccc3ccccc3c2)C(N)=O)NC1=O [Analog #17, H2 -D-Nal-Cys-Tyr-D-Nal-Lys-Val-Cys-Nal-NH2] (H-[d2Nal]CY[d2Nal]KVC[2Nal]-NH2; disulfide 2-7) | 4 ± 2 % total | 19 ± 1 % total | > 10 µM | > 10 µM | 0.85 ± 0.3 µM | 1.57 µM | 0.399 ± 0.068 µM | 2 fold | 3.71 ± 0.2 µM | 1.78 ± 0.295 µM | 1.2 to 1.8 µM | completely inhibited | 12 ± 4 dym × 10^3 | 15 ± 2 dym × 10^3 | 570 ± 180 nM | – | – | –
CC(C)[C@@H]1NC(=O)[C@H](CCCCN)NC(=O)[C@@H](Cc2c[nH]c3ccccc23)NC(=O)[C@H](Cc2ccc(O)cc2)NC(=O)[C@@H](NC(=O)[C@H](N)Cc2ccc3ccccc3c2)CSSC[C@@H](C(=O)N[C@H](Cc2ccc3ccccc3c2)C(N)=O)NC1=O [Analog #8, H2 -D-Nal-Cys-Tyr-D-Trp-Lys-Val-Cys-D-Nal-NH2] (H-[d2Nal]CY[dW]KVC[d2Nal]-NH2; disulfide 2-7) | 2 ± 1 % total | 14 ± 1 % total | > 10 µM | > 10 µM | 1.48 ± 0.5 µM | 0.28 µM | 1.92 ± 0.201 µM | 9 fold | 4.1 ± 0.75 µM | 5.19 ± 0.987 µM | – | – | 10 ± 3 dym × 10^3 | 67 ± 13 dym × 10^3 | 3.9 ± 0.1 nM | 1.4 to 2.3 µM | 6 fold | –
CC(C)[C@@H]1NC(=O)[C@H](CCCCN)NC(=O)[C@@H](Cc2c[nH]c3ccccc23)NC(=O)[C@H](Cc2ccc(O)cc2)NC(=O)[C@@H](NC(=O)[C@H](N)Cc2ccccc2)CSSC[C@@H](C(=O)N[C@@H](Cc2ccc3ccccc3c2)C(N)=O)NC1=O [Analog #4, H2 -D-Phe-Cys-Tyr-D-Trp-Lys-Val-Cys-Nal-NH2] (H-[dF]CY[dW]KVC[2Nal]-NH2; disulfide 2-7) | 4 ± 2 % total | 14 ± 1 % total | > 10 µM | 21.9 ± 4.26 µM | 0.245 ± 0.13 µM | 0.65 ± 0.13 µM | 0.818 ± 0.068 µM | – | 2 ± 0.15 µM | 3.76 ± 0.568 µM | – | – | 13 ± 1 dym × 10^3 | 33 ± 4 dym × 10^3 | 0.24 ± 0.13 nM | – | 4 to 7 fold | –
CC(C)[C@@H]1NC(=O)[C@H](Cc2c[nH]cn2)NC(=O)[C@@H](Cc2c[nH]c3ccccc23)NC(=O)[C@H](Cc2ccc(O)cc2)NC(=O)[C@@H](NC(=O)[C@H](N)Cc2ccc3ccccc3c2)CSSC[C@@H](C(=O)N[C@@H](Cc2ccc3ccccc3c2)C(N)=O)NC1=O [Analog #14] (H-[d2Nal]CY[dW]HVC[2Nal]-NH2; disulfide 2-7; N-terminus assumed) | 2 ± 1 % total | 13 ± 1 % total | > 10 µM | > 10 µM | 0.47 ± 0.24 µM | 0.5 µM | 9.86 ± 1.29 µM | 45 fold | 3.1 ± 0.7 µM | 11.9 ± 1.83 µM | – | – | 8 ± 1 dym × 10^3 | 97 ± 7 dym × 10^3 | 1870 ± 30 nM | – | 50 fold | 3 fold
